Tests used:
[1] = system: Staphylococcus auricularis DSM 20609; assay: Agar diffusion assay; format: cell-based; conditions: DSM20609, 50 μL of 0.5 mg in 1 mL methanol per 7 mm hole, n.a. = no activity observed, read-out: diameter of inhibition zone
Experimental: (§1) Antimicrobial activities of the gulmirecins were determined in a primary screen against Bacillus subtilis ATCC 6633, Staphylococcus aureus SG511, Staphylococcus auricularis DSM 20609, Mycobacterium vaccae IMET 10670, Pseudomonas aeruginosa K799/61, Escherichia coli SG458, Sporobolomyces salmonicolor SBUG 549, Candida albicans ATCC14053 and Penicillium notatum JP 36. To this end, holes with 7 mm diameter were aseptically punched in the respective agar medium. Subsequently, the agar plates were inoculated with the test organisms. 0.5 mg of every test compound was dissolved in 1 mL of methanol, and 50 μL of this solution was transferred to a single hole. Ciprofloxacin and amphotericin B served as positive controls. After evaporation of the solvent, the agar plates were incubated depending on the growth conditions of the test organisms. […] The test results are shown in Table 6 below, wherein the given values represent the diameters of the respective inhibition zone in the agar diffusion assay.

[2] = system: Staphylococcus aureus SG511; assay: Agar diffusion assay; format: cell-based; conditions: 50 μL of 0.5 mg in 1 mL methanol per 7 mm hole, n.a. = no activity observed, read-out: diameter of inhibition zone
Experimental: as §1

HUVEC cells = assay: Antiproliferative effect (methylene blue staining); format: cell-based, human; conditions: at a concentration of 100 μM
Experimental: The human monocytic cell line Mono Mac 6 was cultured in RPMI 1640 medium supplemented with FCS (10%, v/v), penicillin (100 U/ml), streptomycin (100 μg/ml), insulin (10 μg/ml), oxaloacetic acid (1 mM), sodium pyruvate (1 mM), and 1× non-essential amino acids at 37° C. and 5% CO2. A-549 cells (DSM ACC-107) were cultured in DMEM high glucose (4.5 g/l) medium supplemented with FCS (10% v/v), penicillin (100 U/ml) and streptomycin (100 μg/ml) at 37° C. in a 5% CO2 incubator. K-562 (DSM ACC 10) and HeLa cells (DSM ACC 57) were grown in RPMI 1640, whereas cells of HUVEC (ATCC CRL-1730) were cultured in DMEM medium. The respective media were supplemented with ultraglutamine 1 (10 ml/l), gentamicin sulfate (500 μl/l), and FCS (10% v/v).
The test substances were dissolved in methanol before being diluted in DMEM. The adherent cells were harvested at the logarithmic growth phase after soft trypsinization using 0.25% trypsin in PBS containing 0.02% EDTA. For each experiment, approximately 10,000 cells were seeded with 0.1 ml culture medium per well of the 96-well microplates. […] In case of K-562 cells, the number of viable cells in every well was determined using the CellTiter-Blue1 assay. […] The optical densities were measured at 660 nm in a SUNRISE microplate reader (TECAN).

[3] = system: primary monocytes from human peripheral blood; assay: MTT assay, cytotoxic activity; format: cell-based; conditions: incubation 24 or 48 hours
Experimental: The cytotoxic activity of gulmirecin A (3) and gulmirecin B (4) against human cells was evaluated in the well-established MTT assay using primary monocytes from human peripheral blood as well as transformed lung epithelial cell A-549 cell and leukemic Mono Mac 6 cells. Furthermore, 3 and 4 were tested against K-562, HUVEC, and HeLa cells.
Human primary monocytes were isolated from leukocyte concentrates, obtained from the Institute of Transfusion Medicine at the University Hospital Jena, Germany. The concentrates were prepared from the blood of healthy adult human donors who had not taken any anti-inflammatory medication for the 10 days prior to blood donation, as described. In brief, freshly withdrawn peripheral blood was pretreated with citrate-phosphate-dextrose solution as anticoagulant and processed with the 2C+ protocol of the Atreus Whole Blood Processing System (Terum BCT). Peripheral blood mononuclear cells (PBMC) were isolated by dextran sedimentation and centrifugation on LSM 1077 lymphocyte separation medium (PAA Laboratories). For isolation of monocytes, the PBMC were washed twice with ice-cold phosphate buffered saline (PBS) and plated (density 2×10^7 cells/ml) in culture flasks (Greiner Bio-One) containing PBMC medium (RPMI 1640 medium supplemented with 100 U/ml penicillin, 100 μg/ml streptomycin and 2 mM L-glutamine) for 1.5 hours at 37° C., 5% CO2. Non-adherent cells were removed; adherent monocytes were scraped, washed with ice-cold PBS and resuspended in ice-cold PBS with a purity of >85%, defined by forward- and side-light scatter properties and detection of the CD14 surface molecule by flow cytometry (BD FACS Calibur). […]
Cells (3×10^5 Mono Mac 6, 1×10^5 A-549 cells, or 2×10^6 monocytes per well) were seeded in a 96-well plate in the respective medium (100 μl/well). […] Absorbance of each well was measured at 570 nm in a Multiskan™ microplate spectrophotometer (Thermo Scientific).

[4] = system: S. aureus Newman in PMA-differentiated human THP-1 cell line (macrophages); assay: Intra-macrophage activity; format: cell-based
Source text: The PMA-differentiated human THP-1 cell line (macrophages) was used as cellular host for infection with S. aureus Newman at an MOI (multiplicity of infection) of 10. […] Intracellular bacteria were recovered and serial dilutions were streaked out on CASO-Agar for cfu counting. The reference drug rifampicin reduced the number of intracellular bacteria by ca. 4 logs (at 8×MIC).

Which results are given for `C/C=C(/C)[C@H]1C/C=C(\C)[C@@H](O[C@H]2O[C@H](CO)[C@@H](O)[C@@H]2O)[C@H](O)C(=O)CC[C@H](C)C(=O)O1` [Compound 4, gulmirecin B]?
zone of inhibition at 25 µg/hole [1]: 19 mm; zone of inhibition at 25 µg/hole [2]: 17 mm; inhibition of proliferation (HUVEC cells): did not inhibit; cell viability / cytotoxicity (MTT) [3]: no reduction in cell viability at the concentrations required for antibacterial activity

Which zone of inhibition at 25 µg/hole [1] does the source give for `C/C=C(/C)[C@H]1C/C=C(\C)[C@@H](O[C@H]2O[C@H](CO)[C@@H](O)[C@@H]2O)[C@H](OC(=O)CC(C)C)C(=O)C[C@@H](O)[C@H](C)C(=O)O1` [Compound 3, gulmirecin A] here?
The zone of inhibition at 25 µg/hole was 31 mm.

And the zone of inhibition at 25 µg/hole [2]?
The zone of inhibition at 25 µg/hole was 29 mm.

What about the inhibition of proliferation (HUVEC cells) of the same molecule?
The inhibition of proliferation was “did not inhibit”.

And the “cell viability / cytotoxicity (MTT)” value [3]?
The value was “no reduction in cell viability at the concentrations required for antibacterial activity”.

With `C/C=C(/C)[C@H]1C/C=C(\C)[C@@H](O[C@H]2O[C@H](CO)[C@@H](O)[C@@H]2O)[C@H](OC(=O)CC(C)C)C(=O)C/C=C(/C)C(=O)O1` [Compound 1, disciformycin A] as the molecule, how does the “reduction of the number of intracellular bacteria” value ([4]; 18 h, MOI 10, cfu counting, tested at 1×, 4× and 8×MIC) read?
The value was 3 logs.

And the “cytotoxicity towards THP-1 host cells” value ([4]; 18 h treatment of infected macrophages)?
Its value is “without causing any apparent cytotoxicity”.

— patent US20200231562A1, “NOVEL MACROLIDE ANTIBIOTICS” (HELMHOLTZ-ZENTRUM FÜR INFEKTIONSFORSCHUNG GMBH, priority 2014, published 2020)
